Reference: the NIST ThermoML archive (doi:10.1016/j.fluid.2015.09.031)
± gives the expanded uncertainty stated by the source.

Conditions: Liquid, Ebulliometric method (Recirculating still)

Row | SMILES | vapor or sublimation pressure (288.15 K) [kPa] | vapor or sublimation pressure (298.15 K) [kPa] | vapor or sublimation pressure (308.15 K) [kPa]
1 | CCCCCl [1-chlorobutane] | 8.4 ± 0.1 | 13.52 ± 0.1 | 21.04 ± 0.1
2 | CCC(C)Cl (stereo not given) [2-chlorobutane] | 13.36 ± 0.1 | 20.91 ± 0.1 | 31.55 ± 0.11

More lines, now with the values ahead:

Row | vapor or sublimation pressure (288.15 K) [kPa] | vapor or sublimation pressure (298.15 K) [kPa] | vapor or sublimation pressure (308.15 K) [kPa] | SMILES
3 | 13 ± 0.1 | 20.35 ± 0.1 | 30.45 ± 0.11 | CC(C)CCl [1-chloro-2-methylpropane]
4 | 26.42 ± 0.11 | 40.13 ± 0.11 | 59.52 ± 0.12 | CC(C)(C)Cl [2-chloro-2-methylpropane]
5 | 3.63 ± 0.1 | 6.095 ± 0.1 | 9.865 ± 0.1 | CCCCCCC [heptane]
